Key:
CYP2A6 = target: T1, CYP2A6 (Homo sapiens, UniProt P11509); conditions: microsomes
T1 sequence (P11509 1-494): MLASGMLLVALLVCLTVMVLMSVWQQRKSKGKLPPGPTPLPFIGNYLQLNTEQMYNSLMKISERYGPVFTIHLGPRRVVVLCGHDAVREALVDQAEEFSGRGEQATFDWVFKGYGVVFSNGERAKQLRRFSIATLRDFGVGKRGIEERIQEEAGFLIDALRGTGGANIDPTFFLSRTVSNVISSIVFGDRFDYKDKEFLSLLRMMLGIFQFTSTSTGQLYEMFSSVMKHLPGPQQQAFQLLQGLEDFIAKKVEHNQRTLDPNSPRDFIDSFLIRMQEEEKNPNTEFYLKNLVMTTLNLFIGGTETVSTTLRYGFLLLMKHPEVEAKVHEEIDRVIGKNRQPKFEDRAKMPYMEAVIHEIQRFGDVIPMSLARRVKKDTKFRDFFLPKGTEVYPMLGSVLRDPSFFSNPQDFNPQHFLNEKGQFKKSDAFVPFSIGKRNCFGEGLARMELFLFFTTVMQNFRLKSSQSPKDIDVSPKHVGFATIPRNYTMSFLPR
Method: The inhibitory potential (IC50 values) of honokiol on CYP activities was evaluated in pooled human liver microsomes using liquid chromatography-tandem mass spectrometry (LC-MS/MS). […] Honokiol was dissolved in acetonitrile. […] After a 3 min preincubation at 37 °C, the reactions were initiated by addition of an NADP generating system and incubated for 15 min at 37 °C in a shaking water bath. The reaction was then stopped by placement of the tubes on ice and adding 100 μL of ice-cold methanol containing internal standards (^13C2, ^15N-acetaminophen for acetaminophen and N-deethylamodiaquine, and d9-1-hydroxybufuralol for 4-hydroxydiclofenac, 4-hydroxybupropion, 7-hydroxycoumarin, 4-hydroxymephenytoin, 1'-hydroxybufuralol, and 1'-hydroxymidazolam). The incubation mixtures were then centrifuged at 13,000 × g for 4 min. All incubations were performed in triplicate, and average values were used. […]
The metabolites formed from the seven CYP cocktail substrates were simultaneously determined according to our previously described LC-MS/MS method with minor modification; the concentration of 4-hydroxybupropion for CYP2B6 activity was quantified separately by LC-MS/MS. […] Quantification was performed by selected reaction monitoring (SRM) of [M+H]^+ ions and the related product ions for each metabolite. […]

CYP2D6 = CYP2D6 (Homo sapiens, UniProt P10635); test: biochemical; conditions: for IC50: IC50 (μM) of honokiol, Bufuralol 1'-hydroxylation
Method: (§1) The inhibitory potential (IC50 values) of honokiol on CYP activities was evaluated in pooled human liver microsomes using liquid chromatography-tandem mass spectrometry (LC-MS/MS). […] Honokiol was dissolved in acetonitrile. […] After a 3 min preincubation at 37 °C, the reactions were initiated by addition of an NADP generating system and incubated for 15 min at 37 °C in a shaking water bath. The reaction was then stopped by placement of the tubes on ice and adding 100 μL of ice-cold methanol containing internal standards (^13C2, ^15N-acetaminophen for acetaminophen and N-deethylamodiaquine, and d9-1-hydroxybufuralol for 4-hydroxydiclofenac, 4-hydroxybupropion, 7-hydroxycoumarin, 4-hydroxymephenytoin, 1'-hydroxybufuralol, and 1'-hydroxymidazolam). The incubation mixtures were then centrifuged at 13,000 × g for 4 min. All incubations were performed in triplicate, and average values were used.
(§2) The reaction was initiated by the addition of the cocktail containing seven CYP probe substrates and bupropion.
(§3) The metabolites formed from the seven CYP cocktail substrates were simultaneously determined according to our previously described LC-MS/MS method with minor modification; the concentration of 4-hydroxybupropion for CYP2B6 activity was quantified separately by LC-MS/MS. A tandem mass spectrometer (TSQ Quantum Access, Thermo Scientific, San Jose, CA, USA) coupled with a Nanospace SI-2 LC system (Tokyo, Japan) was used. The column and autosampler temperatures were 50 °C and 6 °C, respectively. The mass spectrometer was equipped with an electrospray ionization (ESI) source and operated in positive ion mode. The ESI source settings for ionization of the metabolites were as follows: capillary voltage, 4200 V; vaporizer temperature, 350 °C; capillary temperature 330 °C; sheath gas pressure, 35 psi; auxiliary gas pressure, 15 psi. Quantification was performed by selected reaction monitoring (SRM) of [M+H]^+ ions and the related product ions for each metabolite. […] Analytical data were processed using Xcalibur® software (Thermo Scientific).
(§4) The incubation mixtures were centrifuged at 13,000 × g for 4 min, and the supernatants were diluted as follows: dilution of 20 μL supernatant with 180 μL of 25% methanol for CYP2C8; dilution of 50 μL supernatant with 50 μL of water for CYP2C9, CYP2C19, CYP2D6, and CYP1A2; and dilution of 20 μL supernatant with 80 μL of water for CYP2B6. Aliquots (5 μL) of the diluted supernatants were then analyzed by LC-MS/MS.
(§5) The apparent kinetic parameters for inhibitory potential (Ki values) were estimated from the fitted curves using Enzyme Kinetics Ver. 1.1 software (Systat Software Inc.).

CYP2C8 = target: T2, CYP2C8 (Homo sapiens, UniProt P10632); test: biochemical; conditions: for IC50: IC50 (μM) of honokiol, Amodiaquine N-deethylation
T2 sequence (P10632 1-490): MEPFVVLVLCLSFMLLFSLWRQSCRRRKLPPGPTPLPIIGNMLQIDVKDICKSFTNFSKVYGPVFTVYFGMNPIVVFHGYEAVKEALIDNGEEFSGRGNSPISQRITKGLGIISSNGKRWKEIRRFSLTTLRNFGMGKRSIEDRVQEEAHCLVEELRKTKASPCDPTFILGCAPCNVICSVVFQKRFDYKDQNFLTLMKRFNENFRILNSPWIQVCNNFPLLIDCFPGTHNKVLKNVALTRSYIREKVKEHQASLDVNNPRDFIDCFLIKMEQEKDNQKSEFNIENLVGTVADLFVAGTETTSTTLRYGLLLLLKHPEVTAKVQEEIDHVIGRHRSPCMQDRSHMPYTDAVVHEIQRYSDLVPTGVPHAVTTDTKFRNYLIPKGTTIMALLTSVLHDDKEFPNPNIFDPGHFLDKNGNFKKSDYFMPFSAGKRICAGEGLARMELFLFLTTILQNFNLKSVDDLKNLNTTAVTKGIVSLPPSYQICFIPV
Method: as §1, §2, §3, §4, §5

CYP2C19 = CYP2C19 (Homo sapiens, UniProt P33261); test: biochemical; conditions: for IC50: IC50 (μM) of honokiol, S-Mephenytoin 4'-hydroxylation
Method: as §1, §2, §3, §4, §5

CYP2C9 = CYP2C9 (Homo sapiens, UniProt P11712); test: biochemical; conditions: for IC50: IC50 (μM) of honokiol, Diclofenac 4-hydroxylation
Method: as §1, §2, §3, §4, §5

CYP2B6 = target: T3, CYP2B6 (Homo sapiens, UniProt P20813); test: biochemical; conditions: for IC50: IC50 (μM) of honokiol, Bupropion hydroxylation
T3 sequence (P20813 1-491): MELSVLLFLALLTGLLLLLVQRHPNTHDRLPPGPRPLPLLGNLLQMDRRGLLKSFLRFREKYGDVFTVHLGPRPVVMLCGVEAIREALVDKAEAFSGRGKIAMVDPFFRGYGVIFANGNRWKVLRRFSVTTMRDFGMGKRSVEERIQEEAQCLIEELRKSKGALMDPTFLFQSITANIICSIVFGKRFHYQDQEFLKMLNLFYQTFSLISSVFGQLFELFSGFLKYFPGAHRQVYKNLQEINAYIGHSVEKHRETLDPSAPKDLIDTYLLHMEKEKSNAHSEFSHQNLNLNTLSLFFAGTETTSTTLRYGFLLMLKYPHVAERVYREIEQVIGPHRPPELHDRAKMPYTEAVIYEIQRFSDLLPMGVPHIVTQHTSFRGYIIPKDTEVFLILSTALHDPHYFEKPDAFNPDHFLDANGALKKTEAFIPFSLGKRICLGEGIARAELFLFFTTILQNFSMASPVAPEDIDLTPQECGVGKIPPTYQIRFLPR
Method: as §1, §2, §3, §4, §5

[1] = with preincubation, 30 min preincubation with NADPH

Chain of CYP2D6 (P10635 whole entry): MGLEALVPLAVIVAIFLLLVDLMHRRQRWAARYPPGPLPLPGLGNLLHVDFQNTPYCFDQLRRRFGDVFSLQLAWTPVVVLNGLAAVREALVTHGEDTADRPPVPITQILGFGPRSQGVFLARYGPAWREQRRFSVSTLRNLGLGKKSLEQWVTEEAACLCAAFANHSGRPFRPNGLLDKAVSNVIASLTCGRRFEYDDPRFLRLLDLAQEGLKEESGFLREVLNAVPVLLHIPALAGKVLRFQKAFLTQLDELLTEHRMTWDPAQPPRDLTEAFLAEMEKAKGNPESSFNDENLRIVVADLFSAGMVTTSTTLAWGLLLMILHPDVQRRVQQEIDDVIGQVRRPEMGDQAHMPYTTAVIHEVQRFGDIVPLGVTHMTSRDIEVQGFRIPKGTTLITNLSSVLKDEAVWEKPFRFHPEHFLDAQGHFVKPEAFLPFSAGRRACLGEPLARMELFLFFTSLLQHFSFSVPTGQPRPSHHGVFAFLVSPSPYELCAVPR
Chain of CYP2C19 (P33261 whole entry): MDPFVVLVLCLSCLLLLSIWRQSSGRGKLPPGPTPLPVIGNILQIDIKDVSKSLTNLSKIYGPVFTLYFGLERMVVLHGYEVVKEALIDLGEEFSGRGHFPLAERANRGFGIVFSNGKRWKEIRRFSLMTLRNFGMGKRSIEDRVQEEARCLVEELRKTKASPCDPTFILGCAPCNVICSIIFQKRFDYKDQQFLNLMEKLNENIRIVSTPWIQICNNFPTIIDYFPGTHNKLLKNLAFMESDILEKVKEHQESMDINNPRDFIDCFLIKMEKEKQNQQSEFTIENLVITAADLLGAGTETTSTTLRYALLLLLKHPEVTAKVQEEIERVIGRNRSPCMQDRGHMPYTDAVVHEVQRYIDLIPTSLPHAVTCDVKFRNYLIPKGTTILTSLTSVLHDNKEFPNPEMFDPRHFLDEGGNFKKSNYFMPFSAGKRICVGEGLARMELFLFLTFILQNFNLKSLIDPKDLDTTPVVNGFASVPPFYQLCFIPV
Chain of CYP2C9 (P11712 whole entry): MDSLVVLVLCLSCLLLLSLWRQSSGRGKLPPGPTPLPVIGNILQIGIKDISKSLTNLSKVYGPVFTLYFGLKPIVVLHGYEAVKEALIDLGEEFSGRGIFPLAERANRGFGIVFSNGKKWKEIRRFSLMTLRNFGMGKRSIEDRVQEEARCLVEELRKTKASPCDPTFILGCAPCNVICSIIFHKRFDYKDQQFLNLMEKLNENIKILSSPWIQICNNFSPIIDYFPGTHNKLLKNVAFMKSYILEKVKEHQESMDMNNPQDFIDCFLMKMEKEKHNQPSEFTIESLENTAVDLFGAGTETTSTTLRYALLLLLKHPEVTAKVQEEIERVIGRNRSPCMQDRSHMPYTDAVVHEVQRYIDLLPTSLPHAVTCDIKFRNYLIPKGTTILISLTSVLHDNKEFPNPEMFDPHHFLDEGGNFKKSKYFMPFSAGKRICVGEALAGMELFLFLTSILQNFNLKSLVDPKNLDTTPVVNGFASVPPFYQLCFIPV

- IC50 (μM) of honokiol, no preincubation (CYP2A6): No inhibition
- IC50 (μM) of honokiol, with preincubation (CYP2A6): No inhibition
- Ki (CYP2D6): 12 µM
- IC50 (CYP2D6; no preincubation, 5.0 μM bufuralol, pooled HLM (H161)): 14 µM
- IC50 (CYP2D6; [1]): 38.1 µM
- Ki (CYP2C8): 4.9 µM
- IC50 (CYP2C8; no preincubation, 2.5 μM amodiaquine, pooled HLM (H161)): 8.9 µM
- IC50 (CYP2C8; [1]): 15.5 µM
- Ki (CYP2C19): 0.57 µM
- IC50 (CYP2C19; no preincubation, 100 μM [S]-mephenytoin, pooled HLM (H161)): 2.2 µM
- IC50 (CYP2C19; [1]): 2.9 µM
- Ki (CYP2C9): 0.54 µM
- IC50 (CYP2C9; no preincubation, 10 μM diclofenac, pooled HLM (H161)): 4.1 µM
- IC50 (CYP2C9; [1]): 3.9 µM
- Ki (CYP2B6): 17.5 µM
- IC50 (CYP2B6; no preincubation, 50 μM bupropion, pooled HLM (H161)): 13.8 µM
- IC50 (CYP2B6; [1]): 20.8 µM
Compound: C=CCc1ccc(O)c(-c2ccc(O)c(CC=C)c2)c1 [honokiol, 2-(4-hydroxy-3-prop-2-enyl-phenyl)-4-prop-2-enyl-phenol]
